Among the data in ChEMBL document CHEMBL1909046, “DrugMatrix in vitro pharmacology data” are IC50 and Ki values, retold here.

What is called IC50 is the point on the concentration scale where inhibition reaches its midpoint. Broadly, the Ki is the dissociation constant of the complex between target and ligand, obtained from inhibition or displacement.

The target of data set [1] is Matrix metalloproteinase-9 (Homo sapiens, UniProt P14780). Briefly: biochemical. It is filed as cell-based.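 Also: inhibition of isolated MMP-9 enzyme activity toward a synthetic peptide substrate, from the DrugMatrix protease screening panel; in other assays of this panel Not Active means under 50% inhibition at 10 µM.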
Chain of Matrix metalloproteinase-9 (P14780 whole entry): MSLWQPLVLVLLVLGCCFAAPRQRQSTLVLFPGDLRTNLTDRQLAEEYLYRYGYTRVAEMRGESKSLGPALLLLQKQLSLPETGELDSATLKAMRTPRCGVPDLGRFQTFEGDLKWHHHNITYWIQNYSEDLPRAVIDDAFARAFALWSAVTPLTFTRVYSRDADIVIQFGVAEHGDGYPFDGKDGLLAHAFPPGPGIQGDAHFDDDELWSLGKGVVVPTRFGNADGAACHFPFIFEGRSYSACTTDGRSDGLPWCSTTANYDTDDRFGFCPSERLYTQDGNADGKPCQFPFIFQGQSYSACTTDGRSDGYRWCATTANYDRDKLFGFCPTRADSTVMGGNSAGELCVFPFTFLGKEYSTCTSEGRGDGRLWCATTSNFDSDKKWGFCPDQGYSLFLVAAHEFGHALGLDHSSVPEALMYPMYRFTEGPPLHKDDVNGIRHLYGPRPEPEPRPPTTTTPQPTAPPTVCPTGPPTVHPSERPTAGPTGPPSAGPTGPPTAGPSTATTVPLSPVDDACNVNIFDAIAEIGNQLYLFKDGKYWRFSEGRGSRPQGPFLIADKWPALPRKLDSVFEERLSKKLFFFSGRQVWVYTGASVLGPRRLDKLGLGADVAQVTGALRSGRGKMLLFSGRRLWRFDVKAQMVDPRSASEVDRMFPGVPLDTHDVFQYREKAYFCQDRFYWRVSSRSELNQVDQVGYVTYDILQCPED
The target of data set [2] is T1, Leukotriene C4 synthase (Cavia porcellus, UniProt A6XA80).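 Also: enzyme inhibition assay of leukotriene C4 synthase, using LTA4 as the substrate; in other assays of this panel Not Active means under 50% inhibition at 10 µM.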
T1 sequence (A6XA80 whole entry): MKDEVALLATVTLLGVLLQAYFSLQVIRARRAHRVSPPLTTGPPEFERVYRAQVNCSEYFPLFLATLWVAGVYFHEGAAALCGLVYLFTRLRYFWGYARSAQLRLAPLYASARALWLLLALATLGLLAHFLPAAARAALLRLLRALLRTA
It counts as tissue-based, Lung.

Data set [3] has as its target Vasopressin V1a receptor (Homo sapiens, UniProt P37288). It is filed as cell membranes, Membrane. Particulars: hek293. Also: in other assays of this panel Not Active means under 50% inhibition at 10 µM.
Data set [4] is described as follows: DRUGMATRIX: Glutamate, Kainate radioligand binding (ligand: [3H] Kainic acid). It counts as cell membranes, Rattus norvegicus, Wistar, Brain, Membrane. Conditions: Not Active = under 50% inhibition at 10 µM.
Data set [5] deals with T2, 5-hydroxytryptamine receptor 2C (Homo sapiens, UniProt P28335).
T2 sequence (P28335 whole entry): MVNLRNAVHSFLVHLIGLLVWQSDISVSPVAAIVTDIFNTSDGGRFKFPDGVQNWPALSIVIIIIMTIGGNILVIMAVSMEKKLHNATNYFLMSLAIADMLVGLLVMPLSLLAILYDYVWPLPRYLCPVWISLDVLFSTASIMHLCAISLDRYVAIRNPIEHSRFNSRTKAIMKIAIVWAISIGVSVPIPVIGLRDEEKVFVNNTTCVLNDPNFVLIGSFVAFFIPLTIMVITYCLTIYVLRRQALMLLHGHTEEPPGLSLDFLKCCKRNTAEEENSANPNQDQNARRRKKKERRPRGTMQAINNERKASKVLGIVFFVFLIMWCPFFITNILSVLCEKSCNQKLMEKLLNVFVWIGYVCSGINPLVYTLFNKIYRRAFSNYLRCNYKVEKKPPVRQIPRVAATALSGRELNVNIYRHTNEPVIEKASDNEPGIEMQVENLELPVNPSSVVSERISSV
Put plainly: DRUGMATRIX: Serotonin (5-Hydroxytryptamine) 5-HT2C radioligand binding (ligand: [3H] Mesulergine). It counts as cell membranes, CHO-K1, Membrane. Particulars: Not Active = under 50% inhibition at 10 µM; for Ki: read-out: Ki.

Data set [6] in a line: DRUGMATRIX: Leukotriene, BLT (LTB4) radioligand binding (ligand: [3H]LTB4). It counts as cell membranes, Membrane. Particulars: u-937; Not Active = under 50% inhibition at 10 µM.
The target of data set [7] is T3, Cytochrome P450 2A6 (Homo sapiens, UniProt P11509). Also: in other assays of this panel Not Active means under 50% inhibition at 10 µM.
T3 sequence (P11509 whole entry): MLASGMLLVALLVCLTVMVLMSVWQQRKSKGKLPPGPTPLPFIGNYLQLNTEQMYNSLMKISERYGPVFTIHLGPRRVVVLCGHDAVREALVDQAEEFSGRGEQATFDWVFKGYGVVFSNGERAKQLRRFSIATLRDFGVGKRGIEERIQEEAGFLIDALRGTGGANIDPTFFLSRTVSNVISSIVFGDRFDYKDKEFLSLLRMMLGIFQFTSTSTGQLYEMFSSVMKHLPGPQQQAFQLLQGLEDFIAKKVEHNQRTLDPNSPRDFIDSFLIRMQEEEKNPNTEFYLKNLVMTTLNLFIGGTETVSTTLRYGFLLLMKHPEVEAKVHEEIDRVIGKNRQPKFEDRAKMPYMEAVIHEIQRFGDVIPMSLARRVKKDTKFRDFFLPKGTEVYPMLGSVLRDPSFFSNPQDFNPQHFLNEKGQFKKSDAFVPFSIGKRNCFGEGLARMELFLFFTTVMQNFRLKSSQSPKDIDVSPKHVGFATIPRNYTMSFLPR
Particulars: bti-tn-5b1-4.

Chain of Vasopressin V1a receptor (P37288 whole entry): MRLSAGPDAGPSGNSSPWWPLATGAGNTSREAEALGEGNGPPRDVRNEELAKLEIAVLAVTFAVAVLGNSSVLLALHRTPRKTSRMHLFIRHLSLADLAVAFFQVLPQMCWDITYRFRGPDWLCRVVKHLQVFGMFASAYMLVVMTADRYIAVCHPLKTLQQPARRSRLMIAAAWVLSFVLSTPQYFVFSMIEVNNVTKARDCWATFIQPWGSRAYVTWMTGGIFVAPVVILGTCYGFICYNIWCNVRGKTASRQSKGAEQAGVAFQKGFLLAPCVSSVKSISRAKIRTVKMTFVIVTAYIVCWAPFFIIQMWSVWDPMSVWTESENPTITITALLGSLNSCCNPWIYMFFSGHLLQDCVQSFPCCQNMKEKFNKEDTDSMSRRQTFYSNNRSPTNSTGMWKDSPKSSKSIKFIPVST

With `Cc1c(C)c2c(c(C)c1O)CCC(C)(CN1CCN(c3cc(N4CCCC4)nc(N4CCCC4)n3)CC1)O2` (stereo not drawn), the IC50 entry is “Not Active” in data set [1]; “Not Active” in data set [2]; “Not Active” in data set [3]; “Not Active” in data set [4]; 7560 nM in data set [5] (read-out: IC50); “Not Active” in data set [6]. The Ki entry in data set [4] is “Not Active”; in data set [5] it was 3960 nM; in data set [6], “Not Active”.
For the molecule `COc1ccc(CCN(C)CCCC(C#N)(c2ccc(OC)c(OC)c2)C(C)C)cc1OC` (stereo not drawn), the half-inhibitory concentration (IC50) entry in data set [1], in data set [2], in data set [3], in data set [4], in data set [7] and in data set [6] was “Not Active” each time. Also, the inhibitory constant (Ki) result in data set [4], in data set [7] and in data set [6] was “Not Active” throughout.
For the molecule `CC(C)Cc1ccc([C@@H](C)C(=O)O)cc1` [(R)-IBUPROPHEN], the half-maximal inhibitory concentration (IC50) entry in data set [1], in data set [2], in data set [3], in data set [4], in data set [5] (cho-k1) and in data set [7] was “Not Active” throughout. Moreover, the IC50 result in data set [6] was “Not Active”. Further, the Ki result in data set [4], in data set [7] and in data set [6] was “Not Active” throughout.
Turning to `CN(C)CCOC(c1ccccc1)c1ccccc1` [DIPHENHYDRAMINE], the half-inhibitory concentration (IC50) entry in data set [1], in data set [2] and in data set [3] was “Not Active” each time.
In the case of `Clc1ccc(COC(Cn2ccnc2)c2ccc(Cl)cc2Cl)cc1` (stereo not drawn) [ECONAZOLE], the half-maximal inhibitory concentration (IC50) in data set [1] (read-out: IC50) is 7000 nM; in data set [2] it was “Not Active”; in data set [3], “Not Active”; in data set [7], “Not Active”. In data set [7], the Ki entry is given as “Not Active”.
On to `CCN(CC)CCOc1ccc(/C(=C(/Cl)c2ccccc2)c2ccccc2)cc1` [ENCLOMIPHENE], for which the 50% inhibitory concentration (IC50) entry is “Not Active” in data set [1]; “Not Active” in data set [2]; “Not Active” in data set [3]; 1270 nM in data set [5] (read-out: IC50); “Not Active” in data set [7]. Besides, the figures for the Ki in data set [5] and in data set [7] were 666 nM and “Not Active”, respectively.
Consider `Fc1ccc(C(c2ccc(F)cc2)N2CCN(C/C=C/c3ccccc3)CC2)cc1` [FLUNARIZINE], for which the 50% inhibitory concentration (IC50) entry in data set [1] was “Not Active”; in data set [2], “Not Active”; in data set [3], “Not Active”; in data set [5] (read-out: IC50), 669 nM; in data set [7], “Not Active”. Also, the inhibition constant Ki was 351 nM in data set [5] and “Not Active” in data set [7].
With `CNCCC(Oc1ccc(C(F)(F)F)cc1)c1ccccc1` (stereo not drawn) [FLUOXETINE], the IC50 result in data set [1], in data set [2], in data set [3] and in data set [7] was “Not Active” in each case. The Ki result in data set [7] is “Not Active”.
`Cc1ccc(NC(=O)c2ccc(CN3CCN(C)CC3)cc2)cc1Nc1nccc(-c2cccnc2)n1` [IMATINIB]: the IC50 result in data set [1], in data set [2], in data set [3], in data set [5] (cho-k1) and in data set [7] was “Not Active” in each case. Moreover, the inhibition constant (Ki) entry in data set [7] was “Not Active”.
As for `CC(C)Oc1ccc2c(=O)c(-c3ccccc3)coc2c1` [IPRIFLAVONE], the half-maximal inhibitory concentration (IC50) entry in data set [1], in data set [2], in data set [3], in data set [4], in data set [5] (cho-k1) and in data set [7] was “Not Active” throughout. Further, in data set [6], the IC50 result was “Not Active”. In addition, the Ki entry in data set [4], in data set [7] and in data set [6] was “Not Active” throughout.
As to `CC(C)NCC(O)c1ccc(O)c(O)c1` (stereo not drawn) [ISOPROTERENOL], the half-maximal inhibitory concentration (IC50) result in data set [1], in data set [2], in data set [3], in data set [4], in data set [5] (cho-k1) and in data set [7] was “Not Active” in each case. The IC50 entry in data set [6] is “Not Active”. The Ki entry in data set [4], in data set [7] and in data set [6] was “Not Active” in each case.
For `CNC1(c2ccccc2Cl)CCCCC1=O` (stereo not drawn) [KETAMINE], the IC50 result in data set [1], in data set [2], in data set [3], in data set [4], in data set [5] (cho-k1) and in data set [7] was “Not Active” in each case. For the same molecule, the IC50 result in data set [6] is listed as “Not Active”. The inhibition constant (Ki) result in data set [4], in data set [7] and in data set [6] was “Not Active” each time.
`N#Cc1ccc(C(c2ccc(C#N)cc2)n2cncn2)cc1` [LETROZOLE]: the IC50 result in data set [1], in data set [2], in data set [3], in data set [4], in data set [5] (cho-k1) and in data set [7] was “Not Active” throughout. Moreover, the IC50 entry in data set [6] was “Not Active”. Moreover, the inhibitory constant (Ki) entry in data set [4], in data set [7] and in data set [6] was “Not Active” throughout.
`CCN1CCC[C@H]1CNC(=O)c1cc(S(N)(=O)=O)ccc1OC` [LEVOSULPIRIDE]: the IC50 entry in data set [1], in data set [2], in data set [3], in data set [4], in data set [5] (cho-k1) and in data set [7] was “Not Active” throughout. In addition, the IC50 entry in data set [6] was “Not Active”. Further, the Ki entry in data set [4], in data set [7] and in data set [6] was “Not Active” throughout.
Turning to `CCN(CC)CC(=O)Nc1c(C)cccc1C` [LIDOCAINE], the IC50 result in data set [1], in data set [2], in data set [3], in data set [4], in data set [5] (cho-k1) and in data set [7] was “Not Active” throughout. For the same molecule, the IC50 result in data set [6] is “Not Active”. Besides, the Ki entry in data set [4], in data set [7] and in data set [6] was “Not Active” each time.
As to `O=C1Nc2ccc(Cl)cc2C(c2ccccc2Cl)=NC1O` (stereo not drawn) [LORAZEPAM], the half-maximal inhibitory concentration (IC50) result in data set [1], in data set [2], in data set [3], in data set [4], in data set [5] (cho-k1) and in data set [7] was “Not Active” each time. The IC50 entry in data set [6] is recorded as “Not Active”. For the same molecule, the inhibition constant (Ki) entry in data set [4], in data set [7] and in data set [6] was “Not Active” in each case.
`CO[C@@H]1[C@@H](OC)[C@H](C)[C@@](O)(CC(=O)O)O[C@H]1[C@H](C)[C@H]1O[C@@]2(CC[C@@](C)([C@H]3CC[C@@](C)([C@@H]4O[C@@H]([C@H]5O[C@](C)(O)[C@H](C)C[C@@H]5C)C[C@@H]4O[C@@H]4C[C@H](OC)[C@@H](OC)[C@H](C)O4)O3)O2)C[C@H](O)[C@H]1C` [MADURAMICIN ACID]: the IC50 entry in data set [1] is “Not Active”; in data set [2], “Not Active”; in data set [3], “Not Active”; in data set [4], “Not Active”; in data set [5] (read-out: IC50), 34 nM; in data set [7] it was “Not Active”. In addition, in data set [6], the IC50 entry is reported as “Not Active”. The Ki result in data set [4] is “Not Active”; in data set [5] it was 18 nM; in data set [7] it was “Not Active”; in data set [6] it was “Not Active”.
In the case of `COc1c2occc2cc2ccc(=O)oc12` [METHOXSALEN], the IC50 result in data set [1], in data set [2], in data set [3], in data set [4], in data set [5] (cho-k1) and in data set [7] was “Not Active” in each case. For the same molecule, the IC50 result in data set [6] is “Not Active”. Further, the Ki entry in data set [4], in data set [7] and in data set [6] was “Not Active” each time.
Regarding `CN[C@H]1CC[C@@H](c2ccc(Cl)c(Cl)c2)c2ccccc21` [SERTRALINE], the IC50 entry in data set [1] was “Not Active”; in data set [2], “Not Active”; in data set [3], “Not Active”; in data set [5] (read-out: IC50), 1080 nM; in data set [7], “Not Active”. Besides, the Ki result in data set [7] is recorded as “Not Active”.
